Values joined by “and” are separate entries in the source; they are usually repeats but may differ in a detail not shown here. Equal values may be shown once. Read-outs that look alike come from different tables or passages of the source.
Legend:
P. falciparum strain 3D7 [1] = conditions: cited from earlier work
[2] = system: P. falciparum had1 mutant strain; conditions: cited from earlier work
HepG2 cells = assay: HepG2 cytotoxicity; type: cell-based, human; conditions: HepG2 IC50/P. falciparum IC50
P. falciparum strain 3D7 [3] = assay: IPP rescue of inhibitor-treated P. falciparum; type: cell-based, Plasmodium falciparum; conditions: 125 μM IPP, 72 h
[4] = system: P. falciparum had1 mutant strain; assay: Growth inhibition of had1 mutant P. falciparum; type: cell-based, Plasmodium falciparum; conditions: for sensitivity in had1 + HAD1-GFP strain: mutant supplied with wild-type copy of HAD1
[5] = system: MEP pathway metabolites in P. falciparum 3D7 parasites; assay: MEP pathway metabolite profiling by LC-MS/MS; type: cell-based, Plasmodium falciparum; conditions: 5× the IC50 value, 10 h
[6] = Tolerability in mice during efficacy study; type: in vivo, mouse; conditions: 20 and 50 mg/kg ip daily for 5 days
[7] = system: Mycobacterium tuberculosis (Mtb) DXR; conditions: cited from earlier work
Mtb = conditions: cited from earlier work
[8] = cited from earlier work

For `O=CN(O)CCCP(=O)([O-])O.[Na+]` [1a, Fosmidomycin], the “rescue of growth by exogenous IPP” value (P. falciparum strain 3D7 [1]) is given as “restoration effect” and the “resistance of had1 parasites” value [2] is given as “resistant”.

With `O=CN(O)C/C=C/P(=O)([O-])O.[Na+]` [12a, Sodium Hydrogen [(1E)-3-(N-Hydroxyformamido)prop-1-en-1-yl]phosphonate] the “SI^Pf selectivity index” value (HepG2 cells) was over 2632, the “rescue of growth by exogenous IPP” value (P. falciparum strain 3D7 [3]) was “effectively rescues growth” and the “sensitivity in had1 + HAD1-GFP strain” value [4] was “restored”.

In the case of `CC(=O)N(C/C=C/P(=O)([O-])O)OCc1ccc(C(C)C)cc1.[Na+]` [16e], the “rescue of growth by exogenous IPP” value (P. falciparum strain 3D7 [3]) is reported as “restored by IPP supplementation” and the “resistance of had1 parasites compared with wild-type” value ([4]; words) is reported as “more resistant”.

With `CC(C)(C)C(=O)OCOP(=O)(/C=C/CN(O)C=O)OCOC(=O)C(C)(C)C` [18a, [({[(2,2-Dimethylpropanoyl)oxy]methoxy}[(1E)-3-(N-hydroxyformamido)prop-1-en-1-yl]phosphoryl)oxy]methyl 2,2-Dimethylpropanoate] the “rescue of growth by exogenous IPP” value (P. falciparum strain 3D7 [3]) was “effectively rescues growth”, the “DOXP level, treated vs untreated parasites” value [5] was “did not show significant difference” and the “sensitivity in had1 + HAD1-GFP strain” value [4] was “restored”. The tolerability in mice [6] was “no adverse effects were observed”.

For `CC(=O)N(O)C/C=C/P(=O)([O-])O.[Na+]` [compound 2], the “increase in potency against Mtb DXR compared with FR900098” value [7] is given as 2 fold and the IC50 ([7]; read-out: Mtb DXR IC50) is given as 1070 nM.

In the case of `CC(=O)N(O)C/C=C/P(=O)(OCOC(=O)C(C)(C)C)OCOC(=O)C(C)(C)C` [compound 3], the “Mtb MIC99” value (Mtb) is listed as 9.4 μg/mL and 22 μM and the “in vivo antimalarial activity” value [8] is listed as “potent in vivo antimalarial activity”.

For `CC(=O)N(CCCP(=O)(OCOC(=O)C(C)(C)C)OCOC(=O)C(C)(C)C)OCc1ccc2ccccc2c1` [compound 5], the “Mtb MIC99” value (Mtb) is listed as 18.75 μg/mL and 33.2 μM.

Reference: article PMC6300130 (Journal of medicinal chemistry, 2018)
